GI50 and TGI data for twelve molecules are collected here from PubChem BioAssay (NCI).

Test systems include SK-OV-3 ovarian; HS 578T breast; OVCAR-8 ovarian; HT29 colon; HOP-92 NSCLC; MCF7 breast; HCT-15 colon; SK-MEL-28 melanoma; A549 NSCLC; BT-549 breast.
Assay in all cases: NCI anticancer screen, dose series, 48 h

Molecules are shown by their SMILES. Several values for one entry are separate records, joined by “and”; a condition that tells them apart may be missing. Equal values may be shown once.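 The compound was tested at five concentrations on cells cultured in 96-well plates, with a 48-hour exposure period. GI50: concentration for 50% inhibition of growth. TGI: total growth inhibition.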

Turning to `C/C=C(\C)C(=O)O[C@@H]1C(O)[C@H]2OC(COC(=O)CCC(=O)CCCCCC[C@H](CCCCC)O[C@@H]3OC(C)[C@H](OC(C)=O)C(O)[C@H]3O2)[C@H]1OC(=O)/C=C/c1ccccc1` (stereo partly specified), the GI50 was 0.0419 µM in the test with SK-OV-3 ovarian; below 0.01 µM in the test with HS 578T breast; below 0.0341 µM in the test on OVCAR-8 ovarian; below 0.01 µM in the test with HT29 colon; below 0.01 µM with HOP-92 NSCLC; below 0.01 µM with MCF7 breast. The GI50 in the test on HCT-15 colon is 0.034 µM; in the test with SK-MEL-28 melanoma, 0.021 µM; in the test on A549 NSCLC, below 0.01 µM; in the test on BT-549 breast, 0.019 µM. The TGI in the test on SK-OV-3 ovarian was 13.3 µM; in the test with HS 578T breast it was 23.3 µM; with OVCAR-8 ovarian, above 51.4 µM; in the test on HT29 colon, 0.652 µM; with HOP-92 NSCLC, 0.415 µM; with MCF7 breast it was 17.3 µM. The TGI was above 100 µM in the test with HCT-15 colon, 9.59 µM in the test on SK-MEL-28 melanoma, 32.3 µM in the test on A549 NSCLC and 13.8 µM in the test on BT-549 breast.
On to `COc1cc(-c2oc3c(OC)c(OC)cc(O)c3c(=O)c2OC)ccc1O`, for which the TGI in the test with SK-OV-3 ovarian is 14.3 µM; in the test with HS 578T breast, 29.7 µM; in the test with OVCAR-8 ovarian, above 50 µM; in the test with HT29 colon, above 100 µM; with HOP-92 NSCLC, 9.13 µM and 30.1 µM; with MCF7 breast it was above 50 µM. Also, the TGI in the test with HCT-15 colon is above 100 µM; in the test on SK-MEL-28 melanoma, above 100 µM; in the test with A549 NSCLC, above 50 µM; in the test with BT-549 breast, 35.7 µM. In addition, the GI50 in the test with HOP-92 NSCLC was 2.74 µM and 5.85 µM; with SK-MEL-28 melanoma, > 100 µM and 20 µM.
Take `O=C1c2cccnc2-c2nc(/C=C/c3ccccc3)cc3c2c1nc1ccccc13`: the GI50 in the test on SK-OV-3 ovarian is 7.1 µM; in the test with HS 578T breast, 3.74 µM; in the test with OVCAR-8 ovarian, 3.8 µM; in the test on HT29 colon it was 1.87 µM; in the test with HOP-92 NSCLC, 17.4 µM; in the test with MCF7 breast, 0.899 µM. In addition, the GI50 in the test on HCT-15 colon was 0.844 µM; in the test on SK-MEL-28 melanoma, 2.3 µM; in the test on A549 NSCLC it was 2.2 µM; with BT-549 breast, 6.38 µM. Besides, the TGI was 17 µM in the test on SK-OV-3 ovarian; 18 µM in the test with HS 578T breast; above 30 µM with OVCAR-8 ovarian; 3.97 µM in the test with HT29 colon; above 100 µM in the test with HOP-92 NSCLC; 5.01 µM in the test on MCF7 breast. For the same molecule, the TGI worked out at 2.1 µM in the test with HCT-15 colon, 4.18 µM in the test on SK-MEL-28 melanoma, 4.34 µM in the test with A549 NSCLC and 17.3 µM in the test on BT-549 breast.
Regarding `CO[C@H]1[C@H](O)[C@H](O[C@H]2CC[C@@]3(C)[C@H](CC[C@@H]4[C@@H]3CC[C@]3(C)[C@@H](C5=CC(=O)OC5)CC[C@]43O)C2)O[C@@H](C)[C@@H]1O`, the TGI is 0.00245 µM and 0.0106 µM in the test on SK-OV-3 ovarian; below 0.0001 µM with HS 578T breast; 0.00572 µM and 0.0113 µM with OVCAR-8 ovarian; 0.00148 µM in the test on HT29 colon; 0.00571 µM and 0.0336 µM in the test with HOP-92 NSCLC; 0.0288 µM in the test on MCF7 breast. Further, the TGI in the test with HCT-15 colon was 0.00255 µM and < 0.0124 µM; in the test on SK-MEL-28 melanoma, 0.00622 µM and < 0.0227 µM; in the test on A549 NSCLC it was 0.00078 µM; in the test with BT-549 breast, 0.000665 µM.
Consider `O=C1C(Cl)=C(Nc2ccc3cn[nH]c3c2)C(=O)c2ccccc21`, for which the GI50 in the test on SK-OV-3 ovarian is 12 µM; in the test with HS 578T breast, 0.5 µM; in the test on OVCAR-8 ovarian, 1.52 µM; in the test with HT29 colon, 1.98 µM; with HOP-92 NSCLC, 1.57 µM; with MCF7 breast, 1.09 µM. The GI50 in the test with HCT-15 colon was 1.01 µM; in the test on SK-MEL-28 melanoma, 1.65 µM; in the test on A549 NSCLC, 2.38 µM; with BT-549 breast it was 1.5 µM. The TGI in the test on SK-OV-3 ovarian was 24.3 µM; with HS 578T breast it was 3.88 µM; in the test on OVCAR-8 ovarian, 3.01 µM; with HT29 colon it was 3.72 µM; in the test on HOP-92 NSCLC, 3 µM; with MCF7 breast, 2.58 µM. Further, the TGI in the test on HCT-15 colon was 2.17 µM; with SK-MEL-28 melanoma it was 3.01 µM; in the test on A549 NSCLC, 5.86 µM; in the test with BT-549 breast, 2.82 µM.
In the case of `Cc1cc(=O)oc2cc(OC(=O)Nc3ccc(Cl)c(Cl)c3)ccc12`, the TGI in the test with SK-OV-3 ovarian was 88.4 µM; in the test with HS 578T breast, 66.4 µM; in the test on OVCAR-8 ovarian, 54.8 µM; in the test with HT29 colon, 75.4 µM; in the test on HOP-92 NSCLC it was 43.4 µM; in the test on MCF7 breast it was above 100 µM. Also, the TGI with HCT-15 colon is above 100 µM; in the test with SK-MEL-28 melanoma, 67.3 µM; in the test on A549 NSCLC it was 82.1 µM; with BT-549 breast, 61.5 µM.
With `O=C1c2ccccc2S(=O)(=O)N1CSC(=S)N1CCCC1`, the GI50 was above 100 µM with SK-OV-3 ovarian; above 100 µM in the test on HS 578T breast; above 100 µM with OVCAR-8 ovarian; above 100 µM with HT29 colon; above 100 µM in the test with HOP-92 NSCLC; above 22.9 µM in the test with MCF7 breast. For the same molecule, the GI50 in the test with HCT-15 colon was above 100 µM; with SK-MEL-28 melanoma, above 100 µM; in the test on A549 NSCLC, above 88.5 µM; with BT-549 breast, above 100 µM. The TGI in the test with SK-OV-3 ovarian, in the test on HS 578T breast, in the test on OVCAR-8 ovarian, in the test with HT29 colon, in the test on HOP-92 NSCLC and with MCF7 breast was above 100 µM throughout. Moreover, the TGI in the test with HCT-15 colon, with SK-MEL-28 melanoma, in the test on A549 NSCLC and in the test on BT-549 breast was above 100 µM each time.
Regarding `COc1ccc2cc(C(=O)/C=C/c3cccc(Cl)c3Cl)ccc2c1`, the GI50 in the test on SK-OV-3 ovarian is 24.7 µM; with HS 578T breast, 50.5 µM; with OVCAR-8 ovarian, 14.9 µM; in the test with HT29 colon, 7.33 µM; in the test with HOP-92 NSCLC, 22.1 µM; in the test on MCF7 breast, 1.28 µM. For the same molecule, the GI50 in the test on HCT-15 colon is 2.13 µM; in the test on SK-MEL-28 melanoma, 22.7 µM; with A549 NSCLC it was 10.9 µM; in the test with BT-549 breast it was 12.5 µM. The TGI was above 62.4 µM in the test with SK-OV-3 ovarian; above 100 µM with HS 578T breast; above 100 µM in the test with OVCAR-8 ovarian; above 64.2 µM in the test on HT29 colon; above 79.7 µM in the test on HOP-92 NSCLC; above 100 µM with MCF7 breast. Further, the TGI with HCT-15 colon is above 34.2 µM; with SK-MEL-28 melanoma, above 71.9 µM; with A549 NSCLC it was above 100 µM; in the test on BT-549 breast it was 48.9 µM.
Turning to `Cc1ccc(S(=O)(=O)N2CCSCCSCCN(S(=O)(=O)c3ccc(C)cc3)CCN(S(=O)(=O)c3ccc(C)cc3)CC2)cc1`, the TGI in the test on SK-OV-3 ovarian, in the test on HS 578T breast, with OVCAR-8 ovarian, in the test on HT29 colon, with HOP-92 NSCLC and in the test with MCF7 breast was above 100 µM each time. For the same molecule, the TGI with HCT-15 colon, in the test on SK-MEL-28 melanoma, with A549 NSCLC and in the test on BT-549 breast was above 100 µM each time.
For `O=C(Nc1cnn2ccc(N3CCC[C@@H]3c3cc(F)ccc3F)nc12)N1CC[C@H](O)C1`, the GI50 in the test with SK-OV-3 ovarian, in the test with HS 578T breast, in the test with OVCAR-8 ovarian, in the test on HT29 colon, in the test on HOP-92 NSCLC and in the test on MCF7 breast was above 100 µM throughout. Further, the GI50 in the test with HCT-15 colon, in the test with SK-MEL-28 melanoma, in the test with A549 NSCLC and with BT-549 breast was above 100 µM in each case. The TGI with SK-OV-3 ovarian, in the test with HS 578T breast, in the test with OVCAR-8 ovarian, in the test on HT29 colon, in the test on HOP-92 NSCLC and in the test with MCF7 breast was above 100 µM throughout. In addition, the TGI in the test with HCT-15 colon, in the test with SK-MEL-28 melanoma, in the test with A549 NSCLC and in the test on BT-549 breast was above 100 µM throughout.
For `COc1ccc(-c2cnc(-c3ccc(F)cc3)[nH]2)cc1`, the GI50 in the test with SK-OV-3 ovarian was 16.5 µM; in the test on HS 578T breast it was 2.14 µM; in the test on OVCAR-8 ovarian, 7.85 µM; in the test with HT29 colon, 3.19 µM; in the test with MCF7 breast, 1.95 µM; with HCT-15 colon, 5.98 µM. In addition, the GI50 is 3.69 µM in the test with SK-MEL-28 melanoma, 5.8 µM with A549 NSCLC and 1.79 µM in the test with BT-549 breast. For the same molecule, the TGI with SK-OV-3 ovarian was above 66.4 µM; in the test on HS 578T breast, 11.2 µM; in the test on OVCAR-8 ovarian, 21.1 µM; in the test on HT29 colon, above 32.8 µM; with HOP-92 NSCLC, 13.1 µM; in the test on MCF7 breast, 6.93 µM. Also, the TGI stood at 13.9 µM in the test with HCT-15 colon, 8.5 µM in the test on SK-MEL-28 melanoma, 16.1 µM in the test with A549 NSCLC and 4.12 µM in the test with BT-549 breast.
With `CCOC(=O)/C=C1\SC(=Nc2ccc(C#N)cc2)N(CCN2C(=O)/C(=C/C(=O)OCC)SC2=Nc2ccc(C#N)cc2)C1=O`, the GI50 in the test on SK-OV-3 ovarian was 15.3 µM; in the test with HS 578T breast, 3.84 µM; with OVCAR-8 ovarian, 3.65 µM; in the test with HT29 colon, 1.11 µM; with HOP-92 NSCLC, 13.7 µM; with MCF7 breast, 0.353 µM. The GI50 with HCT-15 colon was 0.408 µM; in the test on SK-MEL-28 melanoma, 8.86 µM; with A549 NSCLC it was 15.4 µM; in the test with BT-549 breast, 2.98 µM. Further, the TGI in the test with SK-OV-3 ovarian is 41.7 µM; in the test on HS 578T breast it was above 70.5 µM; in the test on OVCAR-8 ovarian, above 63.8 µM; in the test on HT29 colon, 10.1 µM; in the test with HOP-92 NSCLC it was 36.5 µM; in the test on MCF7 breast, 17.7 µM. Moreover, the TGI in the test with HCT-15 colon stood at 2.53 µM; in the test with SK-MEL-28 melanoma, 27.5 µM; in the test on A549 NSCLC, 51.2 µM; with BT-549 breast it was 16.4 µM.
